In patent US7378447B2, “Muscarinic agonists” (Eli Lilly and Company, priority 2003, dated 2008):
Like-named read-outs stand apart in the source and are kept apart here.

System: Male Sprague-Dawley rats
Settings: six-hour delay

For `Nc1c2c(nc3ccccc13)CCCC2` [Tacrine, tacrine], the “retention (errors in retention session)” value (tacrine 3 mg/kg s.c. immediately after the sampling phase) was “not” and the “retention (errors in retention session)” value (tacrine 10 mg/kg s.c. immediately after the sampling phase) was “significantly improved retention”.
